One data set has as its target T1, EP1 receptor (Cavia porcellus, UniProt A0A286XHJ6).
T1 sequence (A0A286XHJ6 1-405): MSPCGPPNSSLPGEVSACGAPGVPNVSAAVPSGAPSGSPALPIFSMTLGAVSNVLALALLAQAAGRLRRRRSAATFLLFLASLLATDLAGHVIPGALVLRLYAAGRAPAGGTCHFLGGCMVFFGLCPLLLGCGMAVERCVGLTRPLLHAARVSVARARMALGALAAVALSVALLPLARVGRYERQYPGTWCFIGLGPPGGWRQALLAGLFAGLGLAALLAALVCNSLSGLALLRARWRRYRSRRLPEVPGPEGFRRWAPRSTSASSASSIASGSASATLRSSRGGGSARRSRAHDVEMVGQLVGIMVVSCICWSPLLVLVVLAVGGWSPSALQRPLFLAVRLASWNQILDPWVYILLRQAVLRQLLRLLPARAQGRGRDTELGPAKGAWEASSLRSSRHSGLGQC
Description: EP1-activity: contraction of the longitudinal smooth muscle of the isolated guinea pig ileum. It counts as cell-based. The procedure:
(§1) Activity at different prostanoid receptors was measured in vitro in isolated smooth muscle preparations. FP-activity was measured as contraction of the isolated feline iris sphincter. EP1-activity was measured as contraction of the longitudinal smooth muscle of the isolated guinea pig ileum. EP3-activity was measured as inhibition of the twitch response induced by electrical field stimulation in the isolated guinea pig was deferens and as contraction of the longitudinal smooth muscle of the isolated chick ileum. Activity was also measured as relaxation of smooth muscle of isolated rabbit jugular vein a preparation which appears to contain a unique PGF2α-sensitive receptor provisionally termed FPVASC. TP-vasoconstrictor activity was measured as contraction of rings of the isolated rat thoracic aorta. Effects on platelets from healthy human donors were measured by incubating platelet-rich plasma with the compounds described herein. Inhibition of aggregation was determined by the ability of the compounds described herein to inhibit platelet aggregation in platelet-rich plasma induced by 20 μM ADP.

For another data set, the target named is T2, EP3 receptor (UniProt A0A286XLZ9).
T2 sequence (A0A286XLZ9 1-363): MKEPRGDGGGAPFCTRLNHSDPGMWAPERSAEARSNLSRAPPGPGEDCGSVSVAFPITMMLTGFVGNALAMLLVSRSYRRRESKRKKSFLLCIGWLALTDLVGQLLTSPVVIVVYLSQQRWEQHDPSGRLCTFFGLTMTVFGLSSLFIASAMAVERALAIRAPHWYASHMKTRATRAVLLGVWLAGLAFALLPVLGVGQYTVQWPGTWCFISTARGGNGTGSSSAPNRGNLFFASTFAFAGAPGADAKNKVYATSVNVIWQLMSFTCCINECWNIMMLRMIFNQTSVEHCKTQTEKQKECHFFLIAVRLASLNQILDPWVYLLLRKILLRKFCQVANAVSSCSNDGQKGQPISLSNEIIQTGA
Description: EP3-activity: inhibition of the twitch response induced by electrical field stimulation in the isolated guinea pig vas deferens. It counts as cell-based. To be noted: pa = printed beside some values, read-out: EC50 (nM) EP3, first value of the cell. The procedure:
as §1

Data set [1] relates to PGF2α-sensitive receptor provisionally termed FPVASC. The experiment in a line: Relaxation of smooth muscle of isolated rabbit jugular vein. To be noted: isolated rabbit jugular vein relaxation; read-out: EC50 (nM) FPVASC. It counts as cell-based. The procedure:
as §1

The target of the next data set is T3, TP receptor (Rattus norvegicus, UniProt P34978).
T3 construct: rings of the isolated rat thoracic aorta; from tissue; host or cells: isolated rat thoracic aorta rings
T3 sequence (P34978 1-341): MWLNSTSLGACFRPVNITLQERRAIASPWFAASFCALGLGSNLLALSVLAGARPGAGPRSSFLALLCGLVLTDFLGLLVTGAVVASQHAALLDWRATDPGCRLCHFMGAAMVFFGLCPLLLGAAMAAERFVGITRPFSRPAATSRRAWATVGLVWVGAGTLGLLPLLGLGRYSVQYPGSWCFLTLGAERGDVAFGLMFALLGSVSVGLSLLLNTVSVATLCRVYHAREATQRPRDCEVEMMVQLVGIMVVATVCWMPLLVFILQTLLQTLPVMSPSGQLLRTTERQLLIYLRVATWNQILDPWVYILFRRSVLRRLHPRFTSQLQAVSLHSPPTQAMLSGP
Description: TP-vasoconstrictor activity: contraction of rings of the isolated rat thoracic aorta. To be noted: isolated rat thoracic aorta contraction; read-out: EC50 (nM) TP. It counts as cell-based. The procedure: as §1

For the next data set, the system named is Dog eye (hyperemia). The experiment in a line: Ocular surface hyperemia in dogs after topical dosing. It counts as in vivo. The arrangement: scale not given here.
Another data set deals with Dog eye (miosis). Description: Miosis in dogs after topical dosing. It counts as in vivo.
The next data set concerns Dog intraocular pressure. The experiment in a line: Dog intraocular pressure by applanation pneumatonometry. To be noted: dogs. It counts as in vivo. The procedure:
The compounds were prepared at the said concentrations in a vehicle comprising 0.1% polysorbate 80 and 10 mM TRIS base. Dogs were treated by administering 25 μl to the ocular surface, the contralateral eye received vehicle as a control. Intraocular pressure was measured by applanation pneumatonometry. Dog intraocular pressure was measured immediately before drug administration and at 6 hours thereafter.

The values below come from patent US6602900B2, “Cyclopentane heptan(ENE)oic acid, 2-heteroarylalkenyl derivatives as therapeutic agents” (Allergan, Inc., priority 1992, dated 2003).

Where only a bound is given, the exact number is not on record here.

As usually defined, the EC50 is the concentration that produces a half-maximal response. `O=C(O)CCC/C=C\C[C@@H]1[C@@H](/C=C/[C@@H](O)CCc2cccs2)[C@H](O)C[C@@H]1O`: the concentration giving a half-maximal response (EC50) is above 10000 nM on EP1 receptor, 43 nM on EP3 receptor, 20 nM in data set [1] and 4010 nM at TP receptor. For the same compound, the “Hyp (hyperemia score)” value in the data set with Dog eye (hyperemia) (0.1%) came to 0.38. Moreover, the Miosis entry with Dog eye (miosis) (0.1%) is “pinpt”.

Consider `O=C(O)CCC/C=C\C[C@@H]1[C@@H](/C=C/[C@H](O)CCc2cccs2)[C@H](O)C[C@@H]1O`, for which the concentration for a half-maximal effect (EC50) at EP1 receptor was above 10000 nM; at EP3 receptor it was above 10000 nM; in data set [1], 31 nM; at TP receptor it was above 10000 nM. The “Hyp (hyperemia score)” value in the data set on Dog eye (hyperemia) (0.1%) turned out to be 0.79. In addition, the Miosis entry in the data set with Dog eye (miosis) (0.1%) is “pinpt”.

`CO[C@H](/C=C/[C@@H]1[C@@H](C/C=C\CCCC(=O)O)[C@@H](O)C[C@H]1O)CCc1ccsc1`: the EC50 on EP1 receptor was above 10000 nM; at EP3 receptor it was 189 nM; in data set [1] it was 2.1 nM; on TP receptor, around 10000 nM. Besides, the “Hyp (hyperemia score)” value in the data set with Dog eye (hyperemia) (0.1%) is recorded as 0.83. For the same compound, the Miosis result in the data set on Dog eye (miosis) (0.1%) was “pinpt”.

As to `O=C(O)CCC/C=C\C[C@@H]1[C@@H](/C=C/[C@@H](O)CCc2ccco2)[C@H](O)C[C@@H]1O`, the EC50 was above 10000 nM at EP1 receptor, 44 nM at EP3 receptor, above 7690 nM in data set [1] and around 10000 nM on TP receptor. In addition, the “Hyp (hyperemia score)” value in the data set with Dog eye (hyperemia) (0.01%) is 0.54; with Dog eye (hyperemia) (0.1%), 0.67. Besides, the Miosis entry is “mild” in the data set on Dog eye (miosis) (0.01%) and “pinpoint” in the data set on Dog eye (miosis) (0.1%).

Consider `O=C(O)CCC/C=C\C[C@@H]1[C@@H](/C=C/[C@@H](O)CCc2ccsc2Cl)[C@H](O)C[C@@H]1O`, for which the EC50 on EP1 receptor was above 10000 nM; at EP3 receptor it was 1000 nM; in data set [1], 47 nM; on TP receptor, 2450 nM. In addition, the “Hyp (hyperemia score)” value in the data set on Dog eye (hyperemia) (0.1%) is recorded as 1.13. The Miosis result in the data set on Dog eye (miosis) (0.1%) is listed as “pinpoint”.

`Cc1cc(CC[C@H](O)/C=C/[C@@H]2[C@@H](C/C=C\CCCC(=O)O)[C@@H](O)C[C@H]2O)cs1`: the EC50 is above 10000 nM at EP1 receptor, 305 nM on EP3 receptor, above 7140 nM in data set [1] and around 10000 nM at TP receptor. The “Hyp (hyperemia score)” value in the data set on Dog eye (hyperemia) (0.01%) came out at 0.42; in the data set with Dog eye (hyperemia) (0.1%), 1.38. For the same compound, the Miosis result with Dog eye (miosis) (0.01%) and with Dog eye (miosis) (0.1%) was “pinpt” in each case.

As for `O=C(O)CCC/C=C\C[C@@H]1[C@@H](/C=C/[C@@H](O)CCc2ccc(Br)s2)[C@H](O)C[C@@H]1O`, the EC50 is above 10000 nM at EP1 receptor, 36 nM on EP3 receptor, 8.5 nM in data set [1] and 5080 nM on TP receptor. For the same compound, the “Hyp (hyperemia score)” value in the data set with Dog eye (hyperemia) (0.1%) is reported as 1.0. The Miosis result in the data set on Dog eye (miosis) (0.1%) was “pinpoint”.

On to `O=C(O)CCC/C=C\C[C@@H]1[C@@H](/C=C/[C@@H](O)CCc2cc(Cl)sc2Cl)[C@H](O)C[C@@H]1O` [Compound 4g, 7-[3α,5α-Dihydroxy-2-(3α-hydroxy-5-(3-(2,5-dichloro)thienyl)-1E-pentenyl)cyclopentyl]-5Z-heptenoic acid], for which the “ocular hypotensive effect (in words)” value with Dog intraocular pressure is given as “pronounced ocular hypotensive effect”.

With `O=C(O)CCC/C=C\C[C@@H]1[C@@H](/C=C/[C@@H](O)CCc2ccsc2)[C@H](O)C[C@@H]1O` [Compound 4p, 7-[3α,5α-Dihydroxy-2-(3α-hydroxy-5-(3-thienyl)-1E-pentenyl)cyclopentyl]-5Z-heptenoic acid], the “ocular hypotensive effect (in words)” value in the data set on Dog intraocular pressure is recorded as “excellent ability to lower intraocular pressure”.

`O=C(O)CCC/C=C\C[C@@H]1[C@@H](/C=C/[C@@H](O)CCc2ccsc2)[C@H](O)C[C@@H]1O` [drawing 12]: the EC50 is 2000 nM on EP1 receptor, 400 nM on EP3 receptor, 9.2 nM in data set [1] and 2460 nM on TP receptor. Further, the “Hyp (hyperemia score)” value in the data set on Dog eye (hyperemia) (0.1%) was determined as 0.6. In the data set on Dog eye (miosis) (0.1%), the Miosis result is reported as “pinpoint”.

In the case of `O=C(O)CCC/C=C\C[C@@H]1[C@@H](/C=C/[C@@H](O)CCc2cc(Cl)sc2Cl)[C@H](O)C[C@@H]1O` [drawing 28], the EC50 was above 10000 nM on EP1 receptor, above 10000 nM on EP3 receptor, 7.7 nM in data set [1] and 2300 nM on TP receptor. Also, the “Hyp (hyperemia score)” value in the data set on Dog eye (hyperemia) (0.1%) is listed as 0.5. Besides, in the data set with Dog eye (miosis) (0.1%), the Miosis result is listed as “pinpt”.
